Data as given in US20120195959A1, “METHOD FOR TREATING DISEASE OR DISORDER OF ADULT CENTRAL NERVOUS SYSTEM ASSOCIATED WITH TISSUE SHRINKAGE OR ATROPHY BY ADMINISTRATION OF INSULIN” (priority 2005, published 2012).
“Also recorded” adds a separate entry of the source.

Legend:
diabetic rats [1] = assay: Brain atrophy in streptozotocin-diabetic rats, insulin infused into brain lateral ventricles; type: in vivo, rat; conditions: 0.3 U insulin per kg body weight per day into brain lateral ventricles for 10 weeks; D+Insulin vs D+aCSF P<0.02; N=7 rats per group
Description: (§1) Adult rats were randomly assigned to treatment groups, some of which were treated with streptozotocin to induce diabetes. Alzet osmotic minipumps (pump rate, 0.5 μl per hour) were connected to catheters that delivered either artificial cerebrospinal fluid (D+aCSF) or 0.3 U insulin per kg body weight per day (D+Insulin) into the brain lateral ventricles of diabetic rats for 10 weeks. Pumps were replaced every two weeks. Brains were removed and the wet weight determined. The brains were homogenized in a buffer, and aliquots were taken to determine dry weight. The water weight was calculated as the difference between brain wet and dry weights. The results are shown in FIGS. 1A-1C, wherein the values are means±SEM (N=7 rats per group). Newman-Keuls posthoc test of means was calculated using CSS Statistica software package.

diabetic rats [2] = assay: Serum glucose and body weight in the same experiment at 10 weeks; type: in vivo, rat; conditions: 0.3 U insulin per kg per day intracerebroventricular
Description: as §1
In the same experiment described in FIGS. 1A-1C, rats were weighed and tail blood was withdrawn for glucose assay prior to euthanasia at 10 weeks. Values are means±SEM. Newman-Keuls posthoc test of means was calculated using CSS Statistica software package.

patients = conditions: insulin infusion, glucose levels kept constant in patients; cited from earlier work

insulin
brain atrophy, loss of brain wet and dry weights (diabetic rats [1]): prevented brain atrophy; also recorded: completely normalized brain weight | loss of body weight (diabetic rats [2]; D+Insulin vs D+aCSF P<0.02): partially prevented loss of body weights | hyperglycemia (serum glucose levels) (diabetic rats [2]; D+Insulin vs D+aCSF nonsignificant): no effect on hyperglycemia | number of different genes whose expression is regulated in a muscle biopsy (patients): over 700
